Test results published in patent US8796264B2, “2-piperazin-1-yl-4H-1,3-benzothiazin-4-one derivatives and their use for the treatment of mammalian infections” (Ecole Polytechnique Federale de Lausanne (EPFL), priority 2010, dated 2014).
≈ marks a conversion by molar mass, not a printed value.

Assays:
[1] = tested on: M. smegmatis; test: In vitro inhibitory activity, resazurin reduction assay (MIC99); assay type: cell-based, Mycobacterium smegmatis; settings: Mycolicibacterium smegmatis, read-out: typical MIC values, M. smegmatis
[2] = tested on: Corynebacterium glutamicum ATCC13032; test: In vitro inhibitory activity against actinobacteria (MIC); assay type: cell-based; settings: read-out: typical MIC values, Corynebacterium glutamicum ATCC13032
[3] = tested on: M. tuberculosis H37Rv; test: In vitro inhibitory activity, resazurin reduction assay (MIC99); assay type: cell-based, Mycobacterium tuberculosis; settings: for MIC: Mycobacterium tuberculosis, H37RV, resazurin reduction assay (MIC99), read-out: typical MIC values, M. tuberculosis H37Rv
[4] = Acute toxicity after administration per os; settings: mouse, in vivo, mice
Experimental: The compounds of the invention are non-toxic after administration per os of doses ranging up to 2000 mg/kg. The compound was well tolerated by animals in the first 24 hours after introduction. […] There were no cases of animal death. LD50 for compounds (2) and (18) is >2000 mg/kg.

[5] = tested on: M. tuberculosis strain H37Rv; test: In vivo efficacy in the acute murine TB model; design: species or system mice; settings: for Log of CFU lungs: 4 weeks treatment, intragastric 5 times a week; for Log of CFU lungs / Medium longevity (days) M ± SEM: compounds and BTZ043 50 mg/kg, isoniazid 25 mg/kg; for Result of treatment, macroscopic condition of the lungs: treatment for prescribed time
[6] = tested on: M. tuberculosis strain H37Rv; test: In vivo efficacy in the chronic murine TB model; design: species or system mice; settings: 50 mg/kg by gavage once daily, six-times/week, 4 weeks
[7] = tested on: A549 cells; test: Cytotoxicity TC50, resazurin reduction assay; assay type: cell-based, human; settings: 72 h incubation
Experimental: (§1) The selectivity index (SI) of a compound provides a good indication of the potential tolerability of a drug candidate. […] The TC50 of PBTZ169 and BTZ043 were established using two human cell lines, the hepatocyte line HepG2 and the pneumocyte line A549, using the resazurin reduction assay after incubation with varying amounts of the compounds for 72 h. […] The respective MICs were 1 and 2 ng/ml for PBTZ169 and BTZ043. […] In clinical terms, PBTZ169 should be safer and better tolerated than BTZ043.

[8] = tested on: HepG2 cells; test: Cytotoxicity TC50, resazurin reduction assay; assay type: cell-based, human; settings: 72 h incubation
Experimental: as §1

[9] = in vitro; settings: human, plasma
Experimental: (§2) Next, PBTZ169 and BTZ043 were incubated at a concentration of 1 μg/mL with 0.1 mg of human or mouse liver microsomes (Invitrogen) in order to measure their intrinsic clearance. The relative amounts of the original compound remaining over time were determined by HPLC.

[10] = Intrinsic clearance in liver microsomes
Experimental: as §2

[11] = Chemical stability in simulated gastric fluid; assay type: physicochemical; settings: 5 μM, after 60 minutes
[12] = 1 μg/mL with 0.1 mg microsomes, HPLC

Structure (SMILES) | MIC [1] [µg/mL] | MIC [2] [µg/mL] | melting point [°C] | MIC [3] [µg/mL] | also measured
CCCCCN1CCN(c2nc(=O)c3cc(C(F)(F)F)cc([N+](=O)[O-])c3s2)CC1 [Compound 12] | ≤ 0.0019 | 0.015 (≈ 0.0348 µM) | 133 to 134 | 0.00037 (≈ 0.00086 µM) | 
O=c1nc(N2CCN(Cc3ccncc3)CC2)sc2c([N+](=O)[O-])cc(C(F)(F)F)cc12 [Compound 9, 8-nitro-2-[4-(pyridin-4-ylmethyl)piperazin-1-yl]-6-(trifluoromethyl)-4H-1,3-benzothiazin-4-one] | 0.062 (≈ 0.137 µM) | 0.125 (≈ 0.277 µM) | 200 to 202 | 0.015 (≈ 0.0332 µM) | 
COCCCN1CCN(c2nc(=O)c3cc(C(F)(F)F)cc([N+](=O)[O-])c3s2)CC1 [Compound 11, 2-[4-(3-methoxypropyl)piperazin-1-yl]-8-nitro-6-(trifluoromethyl)-4H-1,3-benzothiazin-4-one] | 0.031 (≈ 0.0717 µM) | 0.25 (≈ 0.578 µM) | 133 to 134 | 0.00375 (≈ 0.00867 µM) | 
O=c1nc(N2CCN(CCCC3(c4ccc(F)cc4)OCCO3)CC2)sc2c([N+](=O)[O-])cc(C(F)(F)F)cc12 [Compound 17, 2-(4-{3-[2-(4-fluorophenyl)-1,3-dioxolan-2-yl]propyl}piperazin-1-yl)-8-nitro-6-(trifluoromethyl)-4H-1,3-benzothiazin-4-one] | 0.00375 (≈ 0.0066 µM) | 0.25 (≈ 0.44 µM) | 152 to 154 | 0.0375 (≈ 0.066 µM) | 
O=c1nc(N2CCN(C3CCCCC3)CC2)sc2c([N+](=O)[O-])cc(C(F)(F)F)cc12 [Compound 1, 2-(4-cyclonexylpiperazin-1-yl)-8-nitro-6-(trifluoromethyl)-4H-1,3-benzothiazin-4-one] | ≤ 0.17 |  | 189 to 191 | 0.00075 (≈ 0.0017 µM) | 
O=c1nc(N2CCN(CCCOc3ccc(F)cc3)CC2)sc2c([N+](=O)[O-])cc(C(F)(F)F)cc12 [Compound 18, 2-{4-[3-(4-fluorophenoxy)propyl]piperazin-1-yl}-8-nitro-6-(trifluoromethyl)-4H-1,3-benzothiazin-4-one] | ≤ 0.0019 | 0.25 (≈ 0.488 µM) |  | ≤ 0.0019 | LD50 at 7 days [4]: > 2000 mg/kg
NNC(=O)c1ccncc1 [Izoniazid, Isoniazid, reference compound] |  |  |  |  | Log of CFU lungs [5]: 4.34; Medium longevity (days) M ± SEM [5]: Alive at sacrifice; Result of treatment, macroscopic condition of the lungs [5]: marked improvement
CCC(CC)N1CCN(c2nc(=O)c3cc(C(F)(F)F)cc([N+](=O)[O-])c3s2)CC1 [Compound 13, 2-[4-(1-ethylpropyl)piperazin-1-yl]-8-nitro-6-(trifluoromethyl)-4H-1,3-benzothiazin-4-one] | ≤ 0.0019 | ≤ 0.0019 | 152 to 153 | 0.00037 (≈ 0.00086 µM) | 
O=c1nc(N2CCN(C34CC5CC(CC(C5)C3)C4)CC2)sc2c([N+](=O)[O-])cc(C(F)(F)F)cc12 [Compound 15, 2-[4-(1-adamantyl)piperazin-1-yl]-8-nitro-6-(trifluoromethyl)-4H-1,3-benzothiazin-4-one] | 0.062 (≈ 0.125 µM) | < 0.5 | 236 to 238 | 0.015 (≈ 0.0303 µM) | 
O=c1nc(N2CCN(CC3CCCCC3)CC2)sc2c([N+](=O)[O-])cc(C(F)(F)F)cc12 [Compound 2, 2-[4-(cyclohexylmethyl)piperazin-1-yl]-8-nitro-6-(trifluoromethyl)-4H-1,3-benzothiazin-4-one] | ≤ 0.17 |  |  | ≤ 0.00019 | LD50 at 7 days [4]: > 2000 mg/kg; Reduction of the CFU load in the lungs and spleens compared to treatment with BTZ043 [6]: significantly more efficacious; TC50 against A549 cells [7]: 73.2 µg/mL (≈ 160 µM); TC50 against HepG2 cells [8]: 66.7 µg/mL (≈ 146 µM); half-life [9]: > 1 h; Intrinsic Clearance (Clint), Human liver microsomes [10, 12]: 23.9 μL/min/mg of protein; Intrinsic Clearance (Clint), Mouse liver microsomes [10, 12]: 20.9 μL/min/mg of protein; Compound remained in simulated gastric fluid [11]: 67%; MIC used for the selectivity index ([3]; strain not stated): 0.001 µg/mL; Log of CFU lungs [5]: 4.30; Medium longevity (days) M ± SEM [5]: Alive at sacrifice; Result of treatment, macroscopic condition of the lungs [5]: marked improvement
CCCCN1CCN(c2nc(=O)c3cc(C(F)(F)F)cc([N+](=O)[O-])c3s2)CC1 [Compound 3, 2-(4-butylpiperazin-1-yl)-8-nitro-6-(trifluoromethyl)-4H-1,3-benzothiazin-4-one] | ≤ 0.17 |  | 119 to 120 | 0.0015 (≈ 0.0036 µM) | 
O=c1nc(N2CCN(CCCOc3ccc(F)cc3)CC2)sc2c([N+](=O)[O-])cc(Cl)cc12 [Compound 20, 6-chloro-2-{4-[3-(4-fluorophenoxy)propyl]piperazin-1-yl}-8-nitro-4H-1,3-benzothiazin-4-one] | ≤ 0.0019 | 0.0031 (≈ 0.00647 µM) | 192 to 194 | ≤ 0.0019 | 
O=c1nc(N2CCN(CCC3CCCCC3)CC2)sc2c([N+](=O)[O-])cc(C(F)(F)F)cc12 [Compound 6, 2-[4-(2-cyclohexylethyl)piperazin-1-yl]-8-nitro-6-(trifluoromethyl)-4H-1,3-benzothiazin-4-one] | ≤ 0.0019 | 0.125 (≈ 0.266 µM) | 175 to 177 | ≤ 0.00019 | 
NC(=O)N1c2ccccc2C=Cc2ccccc21 [Carbamazepine] |  |  |  |  | Intrinsic Clearance (Clint), Human liver microsomes ([10]; human, microsomes): 0.6 μL/min/mg of protein; Intrinsic Clearance (Clint), Mouse liver microsomes ([10]; mouse, microsomes): 1.1 μL/min/mg of protein
O=c1nc(N2CCN(CCOCc3ccccc3)CC2)sc2c([N+](=O)[O-])cc(C(F)(F)F)cc12 [Compound 16, 2-{4-[2-(benzyloxy)ethyl]piperazin-1-yl}-8-nitro-6-(trifluoromethyl)-4H-1,3-benzothiazin-4-one] | 0.031 (≈ 0.0627 µM) | < 0.5 | 117 to 119 | 0.019 (≈ 0.0384 µM) | 
CC(C)CN1CCN(c2nc(=O)c3cc(C(F)(F)F)cc([N+](=O)[O-])c3s2)CC1 [Compound 4] | ≤ 0.0019 | 0.031 (≈ 0.0744 µM) | 150 to 153 | ≤ 0.0019 | 
O=c1nc(N2CCN(CCCC3CCCCC3)CC2)sc2c([N+](=O)[O-])cc(C(F)(F)F)cc12 [Compound 14, 2-[4-(3-cyclohexylpropyl)piperazin-1-yl]-8-nitro-6-(trifluoromethyl)-4H-1,3-benzothiazin-4-one] | ≤ 0.0019 | 0.75 (≈ 1.55 µM) | 145 to 147 | ≤ 0.0019 | 
O=c1nc(N2CCN(CCCCOc3ccccc3)CC2)sc2c([N+](=O)[O-])cc(C(F)(F)F)cc12 [Compound 10, 8-nitro-2-[4-(4-phenoxybutyl)piperazin-1-yl]-6-(trifluoromethyl)-4H-1,3-benzothiazin-4-one] | ≤ 0.0019 | ≤ 0.0019 | 256 to 258 | 0.0015 (≈ 0.00295 µM) | 
CCCN1CCN(c2nc(=O)c3cc(C(F)(F)F)cc([N+](=O)[O-])c3s2)CC1 [Compound 19, 2-(4-propylpiperazin-1-yl)-8-nitro-6-(tfluoromethyl)-4H-1,3-benzothiazin-4-one] | ≤ 0.19 | 0.25 (≈ 0.621 µM) |  | 0.0037 (≈ 0.00919 µM) | Log of CFU lungs [5]: 4.63; Medium longevity (days) M ± SEM [5]: Alive at sacrifice; Result of treatment, macroscopic condition of the lungs [5]: marked improvement
CCCCCCCN1CCN(c2nc(=O)c3cc(C(F)(F)F)cc([N+](=O)[O-])c3s2)CC1 [Compound 8, 2-(4-heptylpiperazin-1-yl)-8-nitro-6-(trifluoromethyl)-4H-1,3-benzothiazin-4-one] | ≤ 0.0019 | 0.125 (≈ 0.273 µM) | 125 to 127 | ≤ 0.00019 | Reduction of the CFU load in the lungs and spleens compared to treatment with BTZ043 [6]: significantly more efficacious
CCC(C)N1CCN(c2nc(=O)c3cc(C(F)(F)F)cc([N+](=O)[O-])c3s2)CC1 (stereo not shown) [Compound 5, 2-(4-sec-butylpiperazin-1-yl)-8-nitro-6-(trifluoromethyl)-4H-1,3-benzothiazin-4-one] | ≤ 0.0019 | 0.062 (≈ 0.149 µM) | 127 to 128 | 0.00037 (≈ 0.000889 µM) | 
O=c1nc(N2CCN(CCCC3CCCCC3)CC2)sc2c([N+](=O)[O-])cc(Cl)cc12 [Compound 21, 6-chloro-2-[4-(3-cyclohexylpropyl)piperazin-1-yl]-8-nitro-4H-1,3-benzothiazin-4-one] | ≤ 0.0019 | 0.062 (≈ 0.137 µM) | 194 to 195 | ≤ 0.0019 | 
CCCC(C)N1CCN(c2nc(=O)c3cc(C(F)(F)F)cc([N+](=O)[O-])c3s2)CC1 (stereo not shown) [Compound 7, 2-[4-(1-methylbutyl)piperazin-1-yl]-8-nitro-6-(trifluoromethyl)-4H-1,3-benzothiazin-4-one] | ≤ 0.0019 | 0.125 (≈ 0.29 µM) | 132 to 133 | ≤ 0.00019 | 
